Experimental findings from the NIST ThermoML archive (doi:10.1016/j.jct.2015.12.018) are described below.

The data set can be described thus: molar enthalpy of vaporization or sublimation. The note with it: 298.15 K; Crystal; Static calorimetry.

± gives the expanded uncertainty stated by the source.

On to `O=C1OCc2ccccc21` [1(3H)-isobenzofuranone], for which the molar enthalpy came out at 88.4 ± 4.4 kJ/mol.

As for `O=C1OC(=O)c2ccccc21` [isobenzofuran-1,3-dione], the molar enthalpy was found to be 87.9 ± 4.7 kJ/mol.
